# Assay results: patent publication EP0533925A1, “OPTICAL ISOMER OF R-FORM OF DIPHENYL ETHER DERIVATIVE AND HERBICIDE CONTAINING THE SAME AS ACTIVE INGREDIENT” (TEIJIN LIMITED, priority 1990, dated 1991)
# What was measured:
# Experiment in all cases: Herbicidal activity, foliar application of single compounds (Test Examples 1 to 5)
# Type in all cases: in vivo
# Set-up in all cases: key: 0 means the state where the plants are as sound as before the application of the active compound; 1, 2, 3 and 4 mean varying degrees of the enfeebled state of the plants between 0 and 5; 1, 2, 3 and 4 mean varying degrees of the enfeebled state of the plants between 0 and 5; 1, 2, 3 and 4 mean varying degrees of the enfeebled state of the plants between 0 and 5; 1, 2, 3 and 4 mean varying degrees of the enfeebled state of the plants between 0 and 5; 5 is the state where the plants are withered or killed by application of the active compound
# Conditions in all cases: 3 weeks after application
# [1] = test system: Abutilon theophrosti
# Experimental: (§1) In these examples, all parts means parts by weight, unless otherwise noted. The herbicidal activity was evaluated on a scale of 6 degrees. In other words, 0 means the state where the plants are as sound as before the application of the active compound, while 5 is the state where the plants are withered or killed by application of the active compound, and 1, 2, 3 and 4 mean varying degrees of the enfeebled state of the plants between 0 and 5.
# (§2) The diphenyl ethers shown in Table 2 were added to 5000 parts of a mixture of acetone and water (1 : 1 by volume), and 2.6 parts of a nonionic surfactant (Sorpol 2680, tradename) was added to form a solution, so that the ether becomes the prescribed amount in each solution.
# (§3) Seeds of plants were sown in the soil, cultivated for 2 to 3 weeks, after germination, then the plants were used for the tests.
# (§4) The prepared solution was applied to these plants at the prescribed rate of application in total, then the plants were continuously cultivated for 3 weeks without applying the solution.
# (§5) The alphabetical symbols in Tables 2 and 3 represent the following plants, respectively: a: Digitaria adscendens b: Setaria viridis c: Sorghum halepense d: Chenopodium album var. centrorubrum e: Amaranthus mangostanus f: Astragalus sinicus g: Abutilon theophrosti h: Solanum nigrum i: Xanthium strumarium j: Soybean; Glycine max k: Corn; Zea mays Table 2
# [2] = test system: Soybean; Glycine max
# Experimental: as §1, §2, §3, §4, §5
# [3] = test system: Corn; Zea mays
# Experimental: as §1, §2, §3, §4, §5
# [4] = test system: Sorghum halepense
# Experimental: as §1, §2, §3, §4, §5
# [5] = test system: Setaria viridis
# Experimental: as §1, §2, §3, §4, §5
# [6] = test system: Digitaria adscendens
# Experimental: as §1, §2, §3, §4, §5
# [7] = test system: Astragalus sinicus
# Experimental: as §1, §2, §3, §4, §5
# [8] = test system: Xanthium strumarium
# Experimental: as §1, §2, §3, §4, §5
# [9] = test system: Amaranthus mangostanus
# Experimental: as §1, §2, §3, §4, §5
# [10] = test system: Solanum nigrum
# Experimental: as §1, §2, §3, §4, §5
# [11] = test system: Chenopodium album var. centrorubrum
# Experimental: as §1, §2, §3, §4, §5
# [12] = Rate of Application 0.008 kg/ha
# [13] = Rate of Application 0.031 kg/ha
# [14] = Rate of Application 0.016 kg/ha
Structure (SMILES),"herbicidal activity, Plants g [1, 12]","herbicidal activity, Plants g [1, 13]","herbicidal activity, Plants j [2, 12]","herbicidal activity, Plants j [2, 13]","herbicidal activity, Plants k [3, 12]","herbicidal activity, Plants k [3, 13]","herbicidal activity, Plants c [4, 12]","herbicidal activity, Plants c [4, 13]","herbicidal activity, Plants b [5, 12]","herbicidal activity, Plants b [5, 13]","herbicidal activity, Plants a [6, 12]","herbicidal activity, Plants a [6, 13]","herbicidal activity, Plants f [7, 12]","herbicidal activity, Plants f [7, 13]","herbicidal activity, Plants i [8, 12]","herbicidal activity, Plants i [8, 13]","herbicidal activity, Plants e [9, 12]","herbicidal activity, Plants e [9, 13]","herbicidal activity, Plants h [10, 13]","herbicidal activity, Plants d [11, 13]",other results
"CCOC(=O)C(C)Oc1cc(Oc2ccc(C(F)(F)F)cc2Cl)ccc1C#N (stereo not drawn) [(2), ethyl α-[2-cyano-5-(2-chloro-4-trifluoromethylphenoxy)phenoxy]propionate]",5,5,4,5,4,5,3,5,3,4,3,4,4,5,5,5,3,5,5,5,"herbicidal activity, Plants h [10, 12]: 5; herbicidal activity, Plants d [11, 12]: 5"
"CCCCOC(=O)C(C)Oc1cc(Oc2ccc(C(F)(F)F)cc2Cl)ccc1C#N (stereo not drawn) [(3), n-Butyl α-[2-cyano-5-(2-chloro-4-trifluoromethylphenoxy)phenoxy]propionate]",5,5,3,5,2,5,2,5,3,4,3,5,4,5,4,5,5,5,5,5,"herbicidal activity, Plants h [10, 12]: 5; herbicidal activity, Plants d [11, 12]: 5"
"CCOC(=O)C(C)Oc1cc(Oc2ncc(C(F)(F)F)cc2Cl)ccc1C#N (stereo not drawn) [(37), Ethyl α-[2-cyano-5-(3-chloro-5-trifluoromethyl-2-pyridyloxy)phenoxy]propionate]",5,5,3,4,2,3,3,5,3,4,3,4,3,4,4,5,5,5,4,5,"herbicidal activity, Plants h [10, 12]: 4; herbicidal activity, Plants d [11, 12]: 3"
"COC(=O)C(C)Oc1cc(Oc2ccc(C(F)(F)F)cc2Cl)ccc1C#N (racemic) [Racemic (1), racemic methyl α-[2-cyano-5-(2-chloro-4-trifluoromethylphenoxy)phenoxy]propionate, reference compound]",,5,,4,,5,,5,,3,,4,,5,,5,,5,5,5,"herbicidal activity, Plants g [1, 14]: 5; herbicidal activity, Plants j [2, 14]: 4; herbicidal activity, Plants k [3, 14]: 4; herbicidal activity, Plants c [4, 14]: 2; herbicidal activity, Plants b [5, 14]: 2; herbicidal activity, Plants a [6, 14]: 3; herbicidal activity, Plants f [7, 14]: 5; herbicidal activity, Plants i [8, 14]: 5; herbicidal activity, Plants e [9, 14]: 5; herbicidal activity, Plants h [10, 14]: 5; herbicidal activity, Plants d [11, 14]: 5"
"COC(=O)[C@H](C)Oc1cc(Oc2ccc(C(F)(F)F)cc2Cl)ccc1C#N [S-enantiomer (1), S-enantiomer of methyl α-[2-cyano-5-(2-chloro-4-trifluoromethylphenoxy)phenoxy]propionate, reference compound]",,1,,1,,0,,1,,0,,1,,1,,0,,0,2,1,
